Reference: patent US10626144B2, “Peptide derivatives and uses thereof” (Nosopharm, priority 2014, dated 2020)
Square brackets hold non-standard residues; d marks the D form. Peptide text beside a SMILES is read from it. Pro(cis-4-CF3) = O=C(O)[C@@H]1C[C@H](C(F)(F)F)CN1; Pro(trans-4-F) = O=C(O)[C@@H]1C[C@@H](F)CN1; Phe(4-Cl) = N[C@@H](Cc1ccc(Cl)cc1)C(=O)O; Pro(cis-4-F) = O=C(O)[C@@H]1C[C@H](F)CN1; Pro(4,4-F2) = O=C(O)[C@@H]1CC(F)(F)CN1; Pro(5S-Me) = C[C@H]1CC[C@@H](C(=O)O)N1; Dab(3S-OH) = NC[C@H](O)[C@H](N)C(=O)O; Met(O2) = CS(=O)(=O)CC[C@H](N)C(=O)O; Lys(iPr) = CC(C)NCCCC[C@H](N)C(=O)O; Met(O) = CS(=O)CC[C@H](N)C(=O)O; ΔZArg = N=C(N)NCC/C=C(\N)C(=O)O; Lys(Me) = CNCCCC[C@H](N)C(=O)O; dOrn = NCCC[C@@H](N)C(=O)O; hSer = N[C@@H](CCO)C(=O)O; NMeA = CN[C@@H](C)C(=O)O; Orn = NCCC[C@H](N)C(=O)O

Experiments:
Test in all cases: MIC, broth microdilution (CLSI), reference strain
Settings in all cases: CAMHB
[1] = test system: Pseudomonas aeruginosa ATCC 27853
[2] = test system: Escherichia coli ATCC 25922
[3] = test system: Staphylococcus aureus ATCC 13709
[4] = test system: Acinetobacter baumannii ATCC 19606

Pa: MIC Pseudomonas aeruginosa ATCC 27853 [1] | Ec: MIC Escherichia coli ATCC 25922 [2] | Sa: MIC Staphylococcus aureus ATCC 13709 [3] | Ab: MIC Acinetobacter baumannii ATCC 19606 [4] | Compound
− (>32 μg/mL) | − (>32 μg/mL) | − (>32 μg/mL) | − (>32 μg/mL) | C[C@H](NC(=O)[C@@H](NC(=O)[C@@H](N)CCCCN)[C@@H](O)CN)C(=O)NCC(=O)N[C@H](CCCN)C(=O)N1CCC[C@H]1C(=O)N[C@@H](CCO)C(=O)N[C@@H](CCCCN)C(=O)N/C(=C\CCNC(=N)N)C(=O)O [24.129] (H-K[Dab(3S-OH)]AG[dOrn]P[hSer]K[ΔZArg]-OH)
− (>32 μg/mL) | − (>32 μg/mL) | + (≤32 μg/mL) | − (>32 μg/mL) | COCC[C@H](NC(=O)[C@@H]1CCCN1C(=O)[C@@H](CCCN)NC(=O)CNC(=O)[C@H](C)NC(=O)[C@@H](NC(=O)[C@@H](N)CCCCN)[C@@H](O)CN)C(=O)N[C@@H](CCCCN)C(=O)N/C(=C\CCNC(=N)N)C(=O)O [24.130] (H-K[Dab(3S-OH)]AG[dOrn]P[hSer](Me)K[ΔZArg]-OH)
− (>32 μg/mL) | + (≤32 μg/mL) | + (≤32 μg/mL) | − (>32 μg/mL) | CSCC[C@H](NC(=O)[C@@H]1CCCN1C(=O)[C@@H](CCCN)NC(=O)CNC(=O)[C@H](C)NC(=O)[C@@H](NC(=O)[C@@H](N)CCCCN)[C@@H](O)CN)C(=O)N[C@@H](CCCCN)C(=O)N/C(=C\CCNC(=N)N)C(=O)O [24.131] (H-K[Dab(3S-OH)]AG[dOrn]PMK[ΔZArg]-OH)
− (>32 μg/mL) | − (>32 μg/mL) | − (>32 μg/mL) | − (>32 μg/mL) | C[C@H](NC(=O)[C@@H](NC(=O)[C@@H](N)CCCCN)[C@@H](O)CN)C(=O)NCC(=O)N[C@H](CCCN)C(=O)N1CCC[C@H]1C(=O)N[C@@H](CC[S+](C)[O-])C(=O)N[C@@H](CCCCN)C(=O)N/C(=C\CCNC(=N)N)C(=O)O (stereo partly drawn) [24.132] (H-K[Dab(3S-OH)]AG[dOrn]P[Met(O)]K[ΔZArg]-OH)
− (>32 μg/mL) | − (>32 μg/mL) | + (≤32 μg/mL) | − (>32 μg/mL) | C[C@H](NC(=O)[C@@H](NC(=O)[C@@H](N)CCCCN)[C@@H](O)CN)C(=O)NCC(=O)N[C@H](CCCN)C(=O)N1CCC[C@H]1C(=O)N[C@@H](CCS(C)(=O)=O)C(=O)N[C@@H](CCCCN)C(=O)N/C(=C\CCNC(=N)N)C(=O)O [24.133] (H-K[Dab(3S-OH)]AG[dOrn]P[Met(O2)]K[ΔZArg]-OH)
− (>32 μg/mL) | − (>32 μg/mL) | − (>32 μg/mL) | − (>32 μg/mL) | COC[C@H](NC(=O)[C@@H]1CCCN1C(=O)[C@@H](CCCN)NC(=O)CNC(=O)[C@H](C)NC(=O)[C@@H](NC(=O)[C@@H](N)CCCCN)[C@@H](O)CN)C(=O)N[C@@H](CCCCN)C(=O)N/C(=C\CCNC(=N)N)C(=O)O [24.136] (H-K[Dab(3S-OH)]AG[dOrn]PS(Me)K[ΔZArg]-OH)
− (>32 μg/mL) | − (>32 μg/mL) | + (≤32 μg/mL) | − (>32 μg/mL) | C[C@H](NC(=O)[C@@H](NC(=O)[C@@H](N)CCCCN)[C@@H](O)CN)C(=O)NCC(=O)N[C@H](CCCN)C(=O)N1CCC[C@H]1C(=O)N[C@H](C(=O)N[C@@H](CCCCN)C(=O)N/C(=C\CCNC(=N)N)C(=O)O)[C@@H](C)O [24.137] (H-K[Dab(3S-OH)]AG[dOrn]PTK[ΔZArg]-OH)

More lines, now with the values behind:

Compound | Pa: MIC Pseudomonas aeruginosa ATCC 27853 [1] | Ec: MIC Escherichia coli ATCC 25922 [2] | Sa: MIC Staphylococcus aureus ATCC 13709 [3] | Ab: MIC Acinetobacter baumannii ATCC 19606 [4]
CC(C)NCCCC[C@H](NC(=O)[C@H](Cc1cnc[nH]1)NC(=O)[C@@H]1CCCN1C(=O)[C@@H](CCCN)NC(=O)CNC(=O)[C@H](C)NC(=O)[C@@H](NC(=O)[C@@H](N)CCCCN)[C@@H](O)CN)C(=O)N[C@H](CCCNC(=N)N)C(N)=O [24.127] (H-K[Dab(3S-OH)]AG[dOrn]PH[Lys(iPr)][dR]-NH2) | − (>32 μg/mL) | + (≤32 μg/mL) | ++ (≤8 μg/mL) | − (>32 μg/mL)
C[C@H](NC(=O)[C@@H](NC(=O)[C@@H](N)CCCCN)[C@@H](O)CN)C(=O)NCC(=O)N[C@H](CCCN)C(=O)N1CCC[C@H]1C(=O)N[C@@H](Cc1cnc[nH]1)C(=O)N[C@@H](CCCN)C(=O)N[C@H](CCCNC(=N)N)C(N)=O [24.128] (H-K[Dab(3S-OH)]AG[dOrn]PH[Orn][dR]-NH2) | − (>32 μg/mL) | − (>32 μg/mL) | ++ (≤8 μg/mL) | − (>32 μg/mL)
C[C@H](NC(=O)[C@@H](NC(=O)[C@@H](N)CCCCN)[C@@H](O)CN)C(=O)NCC(=O)N[C@H](CCCN)C(=O)N1CCC[C@H]1C(=O)N[C@@H](Cc1ccccc1)C(=O)N[C@@H](CCCCN)C(=O)N/C(=C\CCNC(=N)N)C(=O)O [24.134] (H-K[Dab(3S-OH)]AG[dOrn]PFK[ΔZArg]-OH) | − (>32 μg/mL) | + (≤32 μg/mL) | ++ (≤8 μg/mL) | − (>32 μg/mL)
C[C@H](NC(=O)[C@@H](NC(=O)[C@@H](N)CCCCN)[C@@H](O)CN)C(=O)NCC(=O)N[C@H](CCCN)C(=O)N1CC(F)(F)C[C@H]1C(=O)N[C@@H](Cc1cnc[nH]1)C(=O)N[C@@H](CCCCN)C(=O)N/C(=C\CCNC(=N)N)C(=O)O [24.141] (H-K[Dab(3S-OH)]AG[dOrn][Pro(4,4-F2)]HK[ΔZArg]-OH) | − (>32 μg/mL) | − (>32 μg/mL) | ++ (≤8 μg/mL) | − (>32 μg/mL)
C[C@H](NC(=O)[C@@H](NC(=O)[C@@H](N)CCCCN)[C@@H](O)CN)C(=O)NCC(=O)N[C@H](CCCN)C(=O)N1C[C@H](F)C[C@H]1C(=O)N[C@@H](Cc1cnc[nH]1)C(=O)N[C@@H](CCCCN)C(=O)N/C(=C\CCNC(=N)N)C(=O)O [24.142] (H-K[Dab(3S-OH)]AG[dOrn][Pro(trans-4-F)]HK[ΔZArg]-OH) | − (>32 μg/mL) | + (≤32 μg/mL) | + (≤32 μg/mL) | − (>32 μg/mL)
C[C@H](NC(=O)[C@@H](NC(=O)[C@@H](N)CCCCN)[C@@H](O)CN)C(=O)NCC(=O)N[C@H](CCCN)C(=O)N1C[C@@H](C(F)(F)F)C[C@H]1C(=O)N[C@@H](Cc1cnc[nH]1)C(=O)N[C@@H](CCCCN)C(=O)N/C(=C\CCNC(=N)N)C(=O)O [24.143] (H-K[Dab(3S-OH)]AG[dOrn][Pro(cis-4-CF3)]HK[ΔZArg]-OH) | − (>32 μg/mL) | + (≤32 μg/mL) | ++ (≤8 μg/mL) | − (>32 μg/mL)
C[C@H](NC(=O)[C@@H](NC(=O)[C@@H](N)CCCCN)[C@@H](O)CN)C(=O)NCC(=O)N[C@H](CCCN)C(=O)N1C[C@@H](F)C[C@H]1C(=O)N[C@@H](Cc1cnc[nH]1)C(=O)N[C@@H](CCCCN)C(=O)N/C(=C\CCNC(=N)N)C(=O)O [24.144] (H-K[Dab(3S-OH)]AG[dOrn][Pro(cis-4-F)]HK[ΔZArg]-OH) | − (>32 μg/mL) | + (≤32 μg/mL) | ++ (≤8 μg/mL) | − (>32 μg/mL)
C[C@H](NC(=O)[C@@H](NC(=O)[C@@H](N)CCCCN)[C@@H](O)CN)C(=O)NCC(=O)N[C@H](CCCN)C(=O)N1[C@@H](C)CC[C@H]1C(=O)N[C@@H](Cc1cnc[nH]1)C(=O)N[C@@H](CCCCN)C(=O)N/C(=C\CCNC(=N)N)C(=O)O [24.145] (H-K[Dab(3S-OH)]AG[dOrn][Pro(5S-Me)]HK[ΔZArg]-OH) | − (>32 μg/mL) | + (≤32 μg/mL) | ++ (≤8 μg/mL) | − (>32 μg/mL)
C[C@H](NC(=O)[C@@H](NC(=O)[C@@H](N)CCCCN)[C@@H](O)CN)C(=O)NCC(=O)N[C@H](CCCN)C(=O)N(C)[C@@H](C)C(=O)N[C@@H](Cc1cnc[nH]1)C(=O)N[C@@H](CCCCN)C(=O)N/C(=C\CCNC(=N)N)C(=O)O [24.146] (H-K[Dab(3S-OH)]AG[dOrn][NMeA]HK[ΔZArg]-OH) | − (>32 μg/mL) | − (>32 μg/mL) | − (>32 μg/mL) | − (>32 μg/mL)
CC(C)NCCCC[C@H](N)C(=O)N[C@H](C(=O)N[C@@H](C)C(=O)NCC(=O)N[C@H](CCCN)C(=O)N1CCC[C@H]1C(=O)N[C@@H](Cc1cnc[nH]1)C(=O)N[C@@H](CCCCN)C(=O)N/C(=C\CCNC(=N)N)C(=O)O)[C@@H](O)CN [24.147] (H-[Lys(iPr)][Dab(3S-OH)]AG[dOrn]PHK[ΔZArg]-OH) | − (>32 μg/mL) | − (>32 μg/mL) | − (>32 μg/mL) | − (>32 μg/mL)
CNCCCC[C@H](N)C(=O)N[C@H](C(=O)N[C@@H](C)C(=O)NCC(=O)N[C@H](CCCN)C(=O)N1CCC[C@H]1C(=O)N[C@@H](Cc1ccc(Cl)cc1)C(=O)N[C@@H](CCCCN)C(=O)N/C(=C\CCNC(=N)N)C(=O)O)[C@@H](O)CN [24.148] (H-[Lys(Me)][Dab(3S-OH)]AG[dOrn]P[Phe(4-Cl)]K[ΔZArg]-OH) | − (>32 μg/mL) | ++ (≤8 μg/mL) | ++ (≤8 μg/mL) | − (>32 μg/mL)
